Values joined by “and” are separate entries in the source; they are usually repeats but may differ in a detail not shown here. Equal entries are not always repeated.
Settings: Frequency=8 MHz, Dual path-length method

CC(C)C [2-methylpropane]
Settings | speed of sound
300 K, 50138 kPa, Liquid | 1240.1 m/s
300 K, 60144 kPa, Liquid | 1297.7 m/s
300 K, 70151 kPa, Liquid | 1350.8 m/s
300 K, 80158 kPa, Liquid | 1400.3 m/s
300 K, 90165 kPa, Liquid | 1446.7 m/s
300 K, 100172 kPa, Liquid | 1490.4 m/s
300.01 K, 2103.9 kPa, Liquid | 831.02 m/s
319.99 K, 40132 kPa, Liquid | 1106.5 m/s
319.99 K, 45135 kPa, Liquid | 1140.9 m/s
320 K, 1103.3 kPa, Liquid | 702.16 m/s
320 K, 1103.7 kPa, Liquid | 702.18 m/s
320 K, 1105.9 kPa, Liquid | 702.16 m/s
320 K, 2106.5 kPa, Liquid | 719.58 m/s
320 K, 3107.1 kPa, Liquid | 736.11 m/s
320 K, 5106.2 kPa, Liquid | 766.91 m/s
320 K, 5106.5 kPa, Liquid | 766.92 m/s
320 K, 5108.3 kPa, Liquid | 766.9 m/s
320 K, 6108.3 kPa, Liquid | 781.34 m/s
320 K, 7109 kPa, Liquid | 795.23 m/s
320 K, 8109.8 kPa, Liquid | 808.64 m/s
320 K, 9110.4 kPa, Liquid | 821.6 m/s
320 K, 10109 kPa, Liquid | 834.15 m/s
320 K, 10110 kPa, Liquid | 834.16 m/s and 834.15 m/s
320 K, 15114 kPa, Liquid | 891.73 m/s
320 K, 17616 kPa, Liquid | 917.89 m/s
320 K, 20118 kPa, Liquid | 942.65 m/s
320 K, 25121 kPa, Liquid | 988.67 m/s
320 K, 30123 kPa, Liquid | 1030.8 m/s
320 K, 30124 kPa, Liquid | 1030.9 m/s
320 K, 35128 kPa, Liquid | 1070 m/s
320 K, 50136 kPa, Liquid | 1173.5 m/s
320 K, 50139 kPa, Liquid | 1173.5 m/s
320 K, 60146 kPa, Liquid | 1234 m/s
320 K, 70153 kPa, Liquid | 1289.5 m/s
320 K, 80160 kPa, Liquid | 1340.8 m/s
320 K, 90167 kPa, Liquid | 1388.9 m/s
320 K, 100174 kPa, Liquid | 1434 m/s
320.01 K, 12612 kPa, Liquid | 863.87 m/s
340 K, 2104 kPa, Liquid | 604.55 m/s
340 K, 2104.2 kPa, Liquid | 604.63 m/s
340 K, 3104.8 kPa, Liquid | 625.77 m/s
340 K, 4105.5 kPa, Liquid | 645.52 m/s
340 K, 5106 kPa, Liquid | 664.1 m/s
340 K, 5106.2 kPa, Liquid | 664.04 m/s
340 K, 6106.7 kPa, Liquid | 681.52 m/s
340 K, 7107.5 kPa, Liquid | 698.12 m/s
340 K, 8108.3 kPa, Liquid | 713.94 m/s
340 K, 9109.1 kPa, Liquid | 729.07 m/s
340 K, 10109 kPa, Liquid | 743.63 m/s
340 K, 10110 kPa, Liquid | 743.59 m/s
340 K, 12612 kPa, Liquid | 777.6 m/s
340 K, 15113 kPa, Liquid | 808.91 m/s
340 K, 17616 kPa, Liquid | 838.02 m/s
340 K, 20118 kPa, Liquid | 865.3 m/s
340 K, 25121 kPa, Liquid | 915.43 m/s
340 K, 30123 kPa, Liquid | 960.88 m/s
340 K, 30125 kPa, Liquid | 960.87 m/s
340 K, 35128 kPa, Liquid | 1002.6 m/s
340 K, 40130 kPa, Liquid | 1041.4 m/s
340 K, 40132 kPa, Liquid | 1041.4 m/s
340 K, 45135 kPa, Liquid | 1077.7 m/s
340 K, 50140 kPa, Liquid | 1112 m/s
340 K, 60147 kPa, Liquid | 1175.2 m/s
340 K, 70154 kPa, Liquid | 1232.9 m/s
340 K, 80159 kPa, Liquid | 1286 m/s
340 K, 90166 kPa, Liquid | 1335.6 m/s
340 K, 100173 kPa, Liquid | 1382.1 m/s
360 K, 2104.4 kPa, Liquid | 480.04 m/s
360 K, 3105.2 kPa, Liquid | 509.76 m/s
360 K, 4105.9 kPa, Liquid | 536.09 m/s
360 K, 5104.5 kPa, Liquid | 559.92 m/s
360 K, 5104.9 kPa, Liquid | 559.91 m/s
360 K, 6107.2 kPa, Liquid | 581.76 m/s
360 K, 7108 kPa, Liquid | 602.06 m/s
360 K, 8109.7 kPa, Liquid | 621.09 m/s
360 K, 9110.4 kPa, Liquid | 639 m/s
360 K, 10108 kPa, Liquid | 655.98 m/s
360 K, 10111 kPa, Liquid | 655.99 m/s
360 K, 12613 kPa, Liquid | 695.08 m/s
360 K, 15114 kPa, Liquid | 730.38 m/s
360 K, 17616 kPa, Liquid | 762.73 m/s
360 K, 20118 kPa, Liquid | 792.71 m/s
360 K, 25121 kPa, Liquid | 847.15 m/s
360 K, 30125 kPa, Liquid | 895.9 m/s
360 K, 35128 kPa, Liquid | 940.3 m/s
360 K, 40132 kPa, Liquid | 981.26 m/s
360 K, 45135 kPa, Liquid | 1019.4 m/s
360 K, 50136 kPa, Liquid | 1055.2 m/s
360 K, 50137 kPa, Liquid | 1055.2 m/s
360 K, 50138 kPa, Liquid | 1055.2 m/s
360 K, 60146 kPa, Liquid | 1121 m/s
360 K, 70152 kPa, Liquid | 1180.7 m/s
360 K, 80159 kPa, Liquid | 1235.6 m/s
360 K, 90166 kPa, Liquid | 1286.5 m/s
360 K, 100173 kPa, Liquid | 1334.2 m/s
380 K, 3104.5 kPa, Liquid | 378.47 m/s
380 K, 3604.1 kPa, Liquid | 399.56 m/s
380 K, 4105.2 kPa, Liquid | 418.49 m/s
380 K, 5105.8 kPa, Liquid | 451.63 m/s
380 K, 6106.5 kPa, Liquid | 480.42 m/s
380 K, 7107.2 kPa, Liquid | 506.13 m/s
380 K, 8107.8 kPa, Liquid | 529.51 m/s
380 K, 8109.6 kPa, Liquid | 529.52 m/s
380 K, 9107.5 kPa, Liquid | 551.1 m/s
380 K, 9107.9 kPa, Liquid | 551.06 m/s
380 K, 10108 kPa, Liquid | 571.15 m/s
380 K, 10111 kPa, Liquid | 571.16 m/s
380 K, 12610 kPa, Liquid | 616.32 m/s
380 K, 15112 kPa, Liquid | 656.14 m/s
380 K, 15114 kPa, Liquid | 656.15 m/s
380 K, 17614 kPa, Liquid | 692.04 m/s
380 K, 20115 kPa, Liquid | 724.92 m/s
380 K, 20116 kPa, Liquid | 724.9 m/s
380 K, 25120 kPa, Liquid | 783.75 m/s
380 K, 25121 kPa, Liquid | 783.75 m/s
380 K, 30123 kPa, Liquid | 835.78 m/s
380 K, 35127 kPa, Liquid | 882.76 m/s
380 K, 40130 kPa, Liquid | 925.81 m/s
380 K, 45134 kPa, Liquid | 965.68 m/s
380 K, 50137 kPa, Liquid | 1003 m/s
380 K, 60144 kPa, Liquid | 1071.2 m/s
380 K, 70152 kPa, Liquid | 1132.8 m/s
380 K, 80160 kPa, Liquid | 1189.2 m/s
380 K, 90167 kPa, Liquid | 1241.4 m/s
380 K, 100174 kPa, Liquid | 1290.2 m/s
380.01 K, 20115 kPa, Liquid | 724.92 m/s
380.01 K, 50136 kPa, Liquid | 1002.9 m/s
400 K, 4606.1 kPa, Liquid | 309.14 m/s
400 K, 5106.4 kPa, Liquid | 334.25 m/s
400 K, 6107.2 kPa, Liquid | 375.6 m/s
400 K, 7108.1 kPa, Liquid | 409.76 m/s
400 K, 8108.8 kPa, Liquid | 439.33 m/s
400 K, 8109.3 kPa, Liquid | 439.33 m/s
400 K, 9109.5 kPa, Liquid | 465.69 m/s
400 K, 10110 kPa, Liquid | 489.63 m/s
400 K, 10111 kPa, Liquid | 489.63 m/s
400 K, 12612 kPa, Liquid | 541.93 m/s
400 K, 15114 kPa, Liquid | 586.71 m/s and 586.72 m/s
400 K, 17616 kPa, Liquid | 626.34 m/s
400 K, 20117 kPa, Liquid | 662.12 m/s
400 K, 25122 kPa, Liquid | 725.35 m/s
400 K, 30126 kPa, Liquid | 780.54 m/s
400 K, 35129 kPa, Liquid | 829.95 m/s
400 K, 40132 kPa, Liquid | 874.94 m/s
400 K, 45136 kPa, Liquid | 916.42 m/s
400 K, 50139 kPa, Liquid | 955.05 m/s
400 K, 60146 kPa, Liquid | 1025.5 m/s
400 K, 70153 kPa, Liquid | 1088.7 m/s
400 K, 80160 kPa, Liquid | 1146.5 m/s
400 K, 90167 kPa, Liquid | 1199.9 m/s
400 K, 100174 kPa, Liquid | 1249.7 m/s
420 K, 6107.4 kPa, Gas | 266.66 m/s
420 K, 7108.4 kPa, Gas | 314.01 m/s
420 K, 8109.2 kPa, Gas | 351.95 m/s
420 K, 9110 kPa, Gas | 384.27 m/s
420 K, 10111 kPa, Gas | 412.72 m/s
420 K, 12613 kPa, Gas | 472.84 m/s
420 K, 15115 kPa, Gas | 522.73 m/s
420 K, 17617 kPa, Gas | 566.03 m/s
420 K, 20119 kPa, Gas | 604.64 m/s
420 K, 25122 kPa, Gas | 671.99 m/s
420 K, 30126 kPa, Gas | 730.1 m/s
420 K, 35129 kPa, Gas | 781.73 m/s
420 K, 40133 kPa, Gas | 828.47 m/s
420 K, 45136 kPa, Gas | 871.4 m/s
420 K, 50140 kPa, Gas | 911.24 m/s
420 K, 60146 kPa, Gas | 983.6 m/s
420 K, 70153 kPa, Gas | 1048.4 m/s
420 K, 80160 kPa, Gas | 1107.4 m/s
420 K, 90167 kPa, Gas | 1161.8 m/s
420 K, 100174 kPa, Gas | 1212.4 m/s

Source: the NIST ThermoML archive (doi:10.1021/acs.jced.8b00202)
